# Laboratory results from ChEMBL document CHEMBL4627255, “Efficient synthesis of tert-butyl 3-cyano-3-cyclopropyl-2-oxopyrrolidine-4-carboxylates: Highly functionalized 2-pyrrolidinone enabling access to novel macrocyclic Tyk2 inhibitors” (Bioorg Med Chem Lett, 2020).
# pIC50: −log10 of the molar value.
# Key:
# [1] = target: T1, Non-receptor tyrosine-protein kinase TYK2 (Homo sapiens, UniProt P29597); assay: Inhibition of TYK2 (unknown origin)
# [2] = target: Tyrosine-protein kinase JAK1 (Homo sapiens, UniProt P23458); assay: Inhibition of JAK1 (unknown origin)
# Chain of Tyrosine-protein kinase JAK1 (P23458 whole entry): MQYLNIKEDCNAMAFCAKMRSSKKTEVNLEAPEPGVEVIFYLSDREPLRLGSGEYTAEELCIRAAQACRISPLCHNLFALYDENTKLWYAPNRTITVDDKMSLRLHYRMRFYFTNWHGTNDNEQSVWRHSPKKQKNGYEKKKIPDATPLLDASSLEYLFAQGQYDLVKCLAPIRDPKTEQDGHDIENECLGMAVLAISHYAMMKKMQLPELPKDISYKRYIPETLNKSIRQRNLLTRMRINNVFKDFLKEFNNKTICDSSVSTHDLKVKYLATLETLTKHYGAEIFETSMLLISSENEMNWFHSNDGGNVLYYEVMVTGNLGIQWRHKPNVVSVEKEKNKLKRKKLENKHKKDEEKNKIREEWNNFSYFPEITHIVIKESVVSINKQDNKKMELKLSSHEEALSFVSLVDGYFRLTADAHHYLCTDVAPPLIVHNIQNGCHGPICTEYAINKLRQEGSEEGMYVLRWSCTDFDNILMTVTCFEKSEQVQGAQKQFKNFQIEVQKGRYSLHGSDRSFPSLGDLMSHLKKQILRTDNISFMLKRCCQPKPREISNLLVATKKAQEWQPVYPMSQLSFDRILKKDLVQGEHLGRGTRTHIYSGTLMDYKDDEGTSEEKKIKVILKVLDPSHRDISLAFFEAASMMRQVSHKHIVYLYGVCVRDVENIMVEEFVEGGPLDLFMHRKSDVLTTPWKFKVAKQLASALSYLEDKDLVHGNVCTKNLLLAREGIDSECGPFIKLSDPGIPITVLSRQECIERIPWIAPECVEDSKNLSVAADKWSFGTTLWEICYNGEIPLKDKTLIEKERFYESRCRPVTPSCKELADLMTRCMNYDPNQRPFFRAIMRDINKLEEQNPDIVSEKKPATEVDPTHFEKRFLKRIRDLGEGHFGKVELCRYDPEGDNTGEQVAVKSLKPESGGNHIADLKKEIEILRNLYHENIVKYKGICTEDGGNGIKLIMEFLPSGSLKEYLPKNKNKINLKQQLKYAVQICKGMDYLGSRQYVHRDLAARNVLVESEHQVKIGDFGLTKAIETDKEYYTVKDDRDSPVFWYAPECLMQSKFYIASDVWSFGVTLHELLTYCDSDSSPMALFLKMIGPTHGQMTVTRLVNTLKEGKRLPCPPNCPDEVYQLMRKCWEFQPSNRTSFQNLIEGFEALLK
# Homo sapiens [3] = organism: Homo sapiens; assay: Selectivity index, ratio of IC50 for JAK1 (unknown origin) to IC50 for TYK2 (unknown origin)
# [4] = target: Tyrosine-protein kinase JAK2 (Homo sapiens, UniProt O60674); assay: Inhibition of JAK2 (unknown origin)
# Chain of Tyrosine-protein kinase JAK2 (O60674 whole entry): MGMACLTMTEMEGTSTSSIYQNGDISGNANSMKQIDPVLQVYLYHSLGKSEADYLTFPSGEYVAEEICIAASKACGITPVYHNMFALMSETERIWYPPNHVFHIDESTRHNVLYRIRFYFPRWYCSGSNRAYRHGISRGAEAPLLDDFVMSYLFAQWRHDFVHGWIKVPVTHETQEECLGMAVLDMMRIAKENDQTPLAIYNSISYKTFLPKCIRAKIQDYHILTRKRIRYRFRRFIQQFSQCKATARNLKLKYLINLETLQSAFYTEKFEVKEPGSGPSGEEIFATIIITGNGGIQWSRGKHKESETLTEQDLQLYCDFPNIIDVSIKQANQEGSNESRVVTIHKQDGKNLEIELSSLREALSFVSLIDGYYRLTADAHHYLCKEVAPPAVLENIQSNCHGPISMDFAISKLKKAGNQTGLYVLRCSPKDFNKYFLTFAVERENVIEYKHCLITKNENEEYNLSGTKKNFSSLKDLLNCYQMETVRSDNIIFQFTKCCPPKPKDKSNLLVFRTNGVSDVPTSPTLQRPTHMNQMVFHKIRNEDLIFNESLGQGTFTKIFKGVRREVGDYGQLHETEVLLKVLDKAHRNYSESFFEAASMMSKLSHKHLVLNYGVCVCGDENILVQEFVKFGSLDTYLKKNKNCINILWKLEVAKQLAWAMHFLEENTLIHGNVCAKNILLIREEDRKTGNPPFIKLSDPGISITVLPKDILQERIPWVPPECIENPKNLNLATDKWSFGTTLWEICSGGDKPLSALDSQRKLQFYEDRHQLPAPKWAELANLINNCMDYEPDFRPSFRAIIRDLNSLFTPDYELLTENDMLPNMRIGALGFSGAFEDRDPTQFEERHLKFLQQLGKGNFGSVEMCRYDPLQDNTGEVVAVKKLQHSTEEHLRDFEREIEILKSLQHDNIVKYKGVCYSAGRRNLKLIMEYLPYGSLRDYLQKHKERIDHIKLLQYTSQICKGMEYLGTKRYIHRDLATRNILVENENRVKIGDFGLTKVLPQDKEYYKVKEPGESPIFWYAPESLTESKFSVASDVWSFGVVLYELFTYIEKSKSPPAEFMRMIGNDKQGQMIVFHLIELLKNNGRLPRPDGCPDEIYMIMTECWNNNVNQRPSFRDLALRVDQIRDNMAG
# Homo sapiens [5] = organism: Homo sapiens; assay: Selectivity index, ratio of IC50 for JAK2 (unknown origin) to IC50 for TYK2 (unknown origin)
# [6] = target: T2, Tyrosine-protein kinase JAK3 (Homo sapiens, UniProt P52333); assay: Inhibition of JAK3 (unknown origin)
# T2 sequence (P52333 whole entry): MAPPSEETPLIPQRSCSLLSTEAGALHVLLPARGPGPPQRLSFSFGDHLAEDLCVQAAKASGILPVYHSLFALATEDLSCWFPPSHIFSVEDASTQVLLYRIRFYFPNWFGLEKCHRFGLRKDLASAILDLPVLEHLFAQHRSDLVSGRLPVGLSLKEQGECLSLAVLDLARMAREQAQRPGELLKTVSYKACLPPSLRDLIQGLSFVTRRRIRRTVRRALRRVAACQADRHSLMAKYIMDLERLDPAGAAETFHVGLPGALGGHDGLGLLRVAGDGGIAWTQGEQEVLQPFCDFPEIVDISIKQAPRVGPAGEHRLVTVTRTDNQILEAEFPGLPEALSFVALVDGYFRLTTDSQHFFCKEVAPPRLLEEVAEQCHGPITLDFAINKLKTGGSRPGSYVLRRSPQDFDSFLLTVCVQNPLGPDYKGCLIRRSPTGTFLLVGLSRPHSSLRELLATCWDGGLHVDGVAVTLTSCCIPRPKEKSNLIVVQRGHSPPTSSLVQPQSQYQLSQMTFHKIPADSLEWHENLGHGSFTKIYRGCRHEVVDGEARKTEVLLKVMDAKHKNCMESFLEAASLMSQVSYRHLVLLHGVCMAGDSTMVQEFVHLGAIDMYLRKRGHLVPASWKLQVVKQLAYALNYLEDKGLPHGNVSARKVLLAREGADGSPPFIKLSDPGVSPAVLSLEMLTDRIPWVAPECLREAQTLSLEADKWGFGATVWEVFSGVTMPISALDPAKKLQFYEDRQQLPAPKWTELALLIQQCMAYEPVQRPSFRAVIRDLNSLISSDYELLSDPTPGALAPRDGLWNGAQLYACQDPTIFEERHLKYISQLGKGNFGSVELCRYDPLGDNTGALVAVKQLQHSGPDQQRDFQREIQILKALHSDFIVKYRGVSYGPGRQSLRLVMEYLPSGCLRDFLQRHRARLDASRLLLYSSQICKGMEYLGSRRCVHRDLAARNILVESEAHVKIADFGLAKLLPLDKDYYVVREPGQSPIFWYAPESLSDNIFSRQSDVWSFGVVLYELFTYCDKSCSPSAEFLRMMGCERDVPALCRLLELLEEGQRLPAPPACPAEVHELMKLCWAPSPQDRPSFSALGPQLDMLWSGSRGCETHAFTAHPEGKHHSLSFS
# Homo sapiens [7] = organism: Homo sapiens; assay: Selectivity index, ratio of IC50 for JAK3 (unknown origin) to IC50 for TYK2 (unknown origin)
# [8] = target: T1, Non-receptor tyrosine-protein kinase TYK2; assay: Inhibition of TYK2 in human Jurkat cells by luciferase reporter gene assay; type: cell-based
# T1 sequence (P29597 whole entry): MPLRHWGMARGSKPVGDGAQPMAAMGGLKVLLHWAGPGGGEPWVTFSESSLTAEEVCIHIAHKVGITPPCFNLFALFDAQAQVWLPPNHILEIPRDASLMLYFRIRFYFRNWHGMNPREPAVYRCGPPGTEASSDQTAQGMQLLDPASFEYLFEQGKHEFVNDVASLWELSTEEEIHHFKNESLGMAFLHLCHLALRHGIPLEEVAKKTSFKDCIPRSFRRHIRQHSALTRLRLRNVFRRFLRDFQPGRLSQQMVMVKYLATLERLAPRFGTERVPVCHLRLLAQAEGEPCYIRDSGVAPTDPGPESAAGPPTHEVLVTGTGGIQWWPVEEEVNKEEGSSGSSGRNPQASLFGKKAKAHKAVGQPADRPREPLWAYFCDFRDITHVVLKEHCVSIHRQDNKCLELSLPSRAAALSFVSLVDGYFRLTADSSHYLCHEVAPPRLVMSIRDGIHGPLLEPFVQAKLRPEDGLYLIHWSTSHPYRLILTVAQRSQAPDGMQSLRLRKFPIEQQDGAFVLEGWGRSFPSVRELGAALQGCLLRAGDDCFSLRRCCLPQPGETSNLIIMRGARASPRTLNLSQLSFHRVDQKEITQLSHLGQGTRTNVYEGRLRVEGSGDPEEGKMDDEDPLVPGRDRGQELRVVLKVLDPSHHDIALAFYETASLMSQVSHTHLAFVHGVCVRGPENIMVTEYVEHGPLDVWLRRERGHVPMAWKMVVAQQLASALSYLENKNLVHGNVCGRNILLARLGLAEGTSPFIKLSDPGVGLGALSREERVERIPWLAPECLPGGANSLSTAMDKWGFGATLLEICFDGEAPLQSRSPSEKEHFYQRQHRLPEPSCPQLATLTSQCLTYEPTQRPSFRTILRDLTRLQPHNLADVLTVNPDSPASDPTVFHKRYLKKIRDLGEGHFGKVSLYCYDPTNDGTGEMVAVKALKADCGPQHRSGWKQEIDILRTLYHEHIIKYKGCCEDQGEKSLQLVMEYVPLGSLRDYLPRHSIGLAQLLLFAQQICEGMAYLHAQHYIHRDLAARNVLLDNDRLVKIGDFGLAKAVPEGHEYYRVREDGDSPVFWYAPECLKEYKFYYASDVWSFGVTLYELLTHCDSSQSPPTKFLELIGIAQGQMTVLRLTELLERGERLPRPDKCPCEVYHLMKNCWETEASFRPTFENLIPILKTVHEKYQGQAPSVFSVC
pIC50 [1],pIC50 [2],Ratio IC50 (Homo sapiens [3]),pIC50 [4],Ratio IC50 (Homo sapiens [5]),pIC50 [6],Ratio IC50 (Homo sapiens [7]),pIC50 [8],SMILES
7.64,6.04,40,6.74,7.8,6.89,5.7,6.68,N#C[C@]1(C2CC2)C(=O)N2C[C@H]1COCC(=O)NCCc1cccc(n1)Nc1cc2ccn1
8.26,6.89,24,7.00,18,7.37,7.8,6.74,N#C[C@]1(C2CC2)C(=O)N2C[C@H]1COCC(=O)NCCCc1cccc(n1)Nc1cc2ccn1

# The remaining lines, values behind:
SMILES,pIC50 [1],pIC50 [2],Ratio IC50 (Homo sapiens [3]),pIC50 [4],Ratio IC50 (Homo sapiens [5]),pIC50 [6],Ratio IC50 (Homo sapiens [7]),pIC50 [8]
N#C[C@]1(C2CC2)C(=O)N2C[C@H]1COCC(=O)NCc1cccc(n1)Nc1cc2ccn1,6.89,5.52,23,6.00,7.7,5.72,15,5.89
N#C[C@]1(C2CC2)C(=O)N2C[C@H]1COC/C=C\COCc1cccc(n1)Nc1cc2ccn1,8.28,6.24,110,6.89,25,6.57,52,6.59
N#C[C@]1(C2CC2)C(=O)N2C[C@H]1COC/C=C/COCc1cccc(n1)Nc1cc2ccn1,7.92,6.44,30,6.85,12,6.74,15,6.36
CN(C)C(=O)c1ccc(Nc2cc(N3CC[C@@](C#N)(C4CC4)C3=O)ccn2)nc1,8.96,–,–,–,–,–,–,–
N#C[C@]1(C2CC2)C(=O)N2C[C@H]1COCCCCOCc1cccc(n1)Nc1cc2ccn1,8.31,6.15,140,6.89,27,6.40,82,6.68
